Data taken from ChEMBL document CHEMBL6092191, “Advancing Cancer Immunotherapy through Engineering New PD-L1 Degraders: A Comprehensive Study from Small Molecules to PD-L1-Specific Peptide-Drug Conjugates” (J Med Chem, 2024).
The source made the active and inactive calls. No cut-off for these calls is given here.

Assays:
Mus musculus = assay: In vivo induction of PD-L1 degradation in […] lung carcinoma cells xenografted in C57BL/6 mouse model at 29.5 mg/kg, ip administered daily for 8 days by IHC analysis; type: functional, organism-based; settings: time 8.0 day
[1] = Toxicity in C57BL/6 mouse model xenografted with […] cells assessed as damage in heart at 29.5 mg/kg, ip administered daily for 8 days by H and E staining based analysis; type: organism-based; settings: in vivo, 192 h, time 8 day
[2] = Toxicity in C57BL/6 mouse model xenografted with […] cells assessed as damage in liver at 29.5 mg/kg, ip administered daily for 8 days by H and E staining based analysis; type: organism-based; settings: in vivo, 192 h, time 8 day
[3] = Toxicity in C57BL/6 mouse model xenografted with […] cells assessed as damage in lung at 29.5 mg/kg, ip administered daily for 8 days by H and E staining based analysis; type: organism-based; settings: in vivo, 192 h, time 8 day
[4] = system: Lewis lung carcinoma cell line; assay: Antitumor T-cell immune response in Lewis lung carcinoma cells xenografted in C57BL/6 mouse model assessed as increase in ratio of CD8+ to CD4+ T cells in tumor at 29.5 mg/kg, ip administered daily for 8 days by flow cytometry; type: functional, organism-based; settings: time 8.0 day
[5] = target: COP9 signalosome complex subunit 5 (Homo sapiens) (UniProt Q92905); assay: Induction of PD-L1 degradation in human NCI-H460 cells at 10 to 20 uM incubated for 2 days by Western blot analysis; type: cell-based; settings: dose 10-20 µM, time 2.0 day
Sequence of COP9 signalosome complex subunit 5 (Homo sapiens) (Q92905 2-334 limits assumed, one chain of several): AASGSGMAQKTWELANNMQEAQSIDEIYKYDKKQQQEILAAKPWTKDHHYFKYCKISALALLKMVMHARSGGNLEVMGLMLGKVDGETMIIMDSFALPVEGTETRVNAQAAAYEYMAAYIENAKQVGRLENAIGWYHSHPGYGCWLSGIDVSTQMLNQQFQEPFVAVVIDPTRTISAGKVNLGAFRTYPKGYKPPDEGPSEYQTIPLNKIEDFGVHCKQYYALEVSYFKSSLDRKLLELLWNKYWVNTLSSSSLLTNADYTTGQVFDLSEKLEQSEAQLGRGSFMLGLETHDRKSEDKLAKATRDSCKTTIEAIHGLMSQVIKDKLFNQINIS

[6] = Toxicity in C57BL/6 mouse model xenografted with […] cells assessed as damage in kidney at 29.5 mg/kg, ip administered daily for 8 days by H and E staining based analysis; type: organism-based; settings: in vivo, 192 h, time 8 day
[7] = Toxicity in C57BL/6 mouse model xenografted with […] cells assessed as change in AST level at 29.5 mg/kg, ip administered daily for 8 days; type: organism-based, Blood; settings: in vivo, 192 h, time 8 day
HEK-293T = assay: Antiproliferative activity against HEK293T cells at 10 uM incubated for 4 days; type: toxicity, cell-based; settings: human, 96 h, time 4 day
[8] = system: Lewis lung carcinoma cell line; assay: Antitumor T-cell immune response in Lewis lung carcinoma cells xenografted in C57BL/6 mouse model assessed as increase in CD3+ CD8+ infiltration in CD45+ T cells in tumor at 29.5 mg/kg, ip administered daily for 8 days by flow cytometry; type: functional, organism-based; settings: time 8.0 day
3T3-L1 = assay: Antiproliferative activity against mouse 3T3-L1 cells at 10 uM incubated for 4 days; type: toxicity, cell-based; settings: 3t3-l1, 96 h, time 4 day
[9] = system: Lewis lung carcinoma cell line; assay: Antitumor T-cell immune response in Lewis lung carcinoma cells xenografted in C57BL/6 mouse model assessed as decrease in CD3+ CD4+ population in CD45+ T cells in tumor at 29.5 mg/kg, ip administered daily for 8 days by flow cytometry; type: functional, organism-based; settings: time 8.0 day
[10] = system: Lewis lung carcinoma cell line; assay: Antitumor activity against Lewis lung carcinoma cells xenografted in C57BL/6 mouse model at 29.5 mg/kg, ip administered daily for 8 days relative to control; type: functional; settings: 192 h, time 8 day, read-out: TGI
[11] = Toxicity in C57BL/6 mouse model xenografted with […] cells assessed as change in ALT level at 29.5 mg/kg, ip administered daily for 8 days; type: organism-based, Blood; settings: in vivo, 192 h, time 8 day
[12] = Toxicity in C57BL/6 mouse model xenografted with […] cells assessed as obvious body weight change at 29.5 mg/kg, ip administered daily for 8 days; type: organism-based; settings: in vivo, 192 h, time 8 day
[13] = Toxicity in C57BL/6 mouse model xenografted with […] cells assessed as damage in spleen at 29.5 mg/kg, ip administered daily for 8 days by H and E staining based analysis; type: organism-based; settings: in vivo, 192 h, time 8 day
[14] = Antiproliferative activity against human HTori-3 cells at 10 uM incubated for 4 days; type: toxicity, cell-based; settings: htori-3, 96 h, time 4 day
[15] = Toxicity in C57BL/6 mouse model xenografted with […] cells assessed as change in BUN level at 29.5 mg/kg, ip administered daily for 8 days; type: organism-based, Blood; settings: in vivo, 192 h, time 8 day
[16] = system: Lewis lung carcinoma cell line; assay: Antitumor activity against Lewis lung carcinoma cells xenografted in C57BL/6 mouse model assessed as decrease in Ki-67 level at 29.5 mg/kg, ip administered daily for 8 days by IHC analysis; type: functional, organism-based; settings: time 8.0 day
[17] = Toxicity in C57BL/6 mouse model xenografted with […] cells assessed as change in creatinine level at 29.5 mg/kg, ip administered daily for 8 days; type: organism-based; settings: in vivo, 192 h, time 8 day

SMILES: COc1cc2c(cc1OC)-c1cc3ccc(OC)c(OCCNC(=O)OCCSSC[C@H](N)C(=O)NCCCCCC(=O)N[C@@H](CC(N)=O)C(=O)N[C@@H](Cc4ccc(O)cc4)C(=O)N[C@@H](CO)C(=O)N[C@@H](CCCCN)C(=O)N4CCC[C@H]4C(=O)N[C@H](C(=O)N[C@@H](CC(=O)O)C(=O)N[C@@H](CCCNC(=N)N)C(=O)N[C@@H](CCC(N)=O)C(=O)N[C@@H](Cc4ccc(O)cc4)C(=O)N[C@@H](Cc4cnc[nH]4)C(=O)N[C@@H](Cc4ccccc4)C(=O)O)[C@@H](C)O)c3c[n+]1CC2.[Cl-]
- Activity (Mus musculus): Active
- Activity [1]: Non-toxic
- Activity [2]: Non-toxic
- Activity [3]: Non-toxic
- Activity [4]: Active
- Activity [5]: Active; Comparable To Pmt-O9-1A
- Activity [6]: Non-toxic
- Activity [7]: Non-toxic
- Activity (HEK-293T): Non-toxic
- Activity [8]: Active
- Activity (3T3-L1): Non-toxic
- Activity [9]: Active
- inhibition in vivo at 29.5 mg/kg [10]: 89%
- Activity [11]: Non-toxic
- Activity [12]: Non-toxic
- Activity [13]: Non-toxic
- Activity [14]: Non-toxic
- Activity [15]: Non-toxic
- Activity [16]: Active
- Activity [17]: Non-toxic
